According to patent US20240182893A1, “INHIBITION OF FGR REDUCES FIBROSIS” (UNIVERSITY OF PITTSBURGH-OF THE COMMONWEALTH SYSTEM OF …, priority 2021, published 2024):
“Also recorded” adds a separate entry of the source.

Experiments:
Src-family kinase Fgr = Src-family kinase Fgr (Homo sapiens, UniProt P09769); conditions: cited from earlier work
[1] = test system: target cell line (bottom layer); assay: Non-contact transwell coculture with sorted senescent cells from irradiated mouse lungs, profibrotic genes in target cell line; type: cell-based; conditions: FIG. 14
Source text: FIG. 14. Upregulation of profibrotic genes in target cells by irradiated mouse lung senescent cells. In a noncontact transwell co-culture system, filter separated (19) sorted irradiated red and irradiated non-red mouse lung cells plated on top layer, there is significant induction of Tgf-β. Collagen 1a1 and collagen 3 in target cell line (bottom layer).
To establish that irradiated tdTOMp16+ senescent cells induce profibrotic genes in other cells, a C57BL/6 target cell line and a noncontact transwell co-culture system were used (Ejaz A et al. Stem Cells. 2019, 37, 791-802) (FIG. 14). Using the tdTOMp16+ stromal cell line, significant induction by RIS red cells of collagen 1al, collagen 3, and TGF-β in C57/B6 target cells was observed. The induction was abrogated by the Fgr inhibitor TL02-59 (Mukherjee A et al. Cell Death Discovery, 2021, 7, 349). It was confirmed that the findings in stromal cells also occur in lung. Red and non-red cells from 20 Gy irradiated tdTOMp16 mouse lungs were tested.

Fgr = target: T1, Fgr (Mus musculus, UniProt P14234); assay: Western blot of Fgr phosphorylation in tdTOMp16+ cells (phospho-Fgr antibody); type: cell-based
T1 construct: endogenous in cells; host or cells: tdTOMp16+ mouse bone marrow stromal (MSC) cell line, irradiated, senescent tdTOM+ cells
T1 sequence (P14234 whole entry): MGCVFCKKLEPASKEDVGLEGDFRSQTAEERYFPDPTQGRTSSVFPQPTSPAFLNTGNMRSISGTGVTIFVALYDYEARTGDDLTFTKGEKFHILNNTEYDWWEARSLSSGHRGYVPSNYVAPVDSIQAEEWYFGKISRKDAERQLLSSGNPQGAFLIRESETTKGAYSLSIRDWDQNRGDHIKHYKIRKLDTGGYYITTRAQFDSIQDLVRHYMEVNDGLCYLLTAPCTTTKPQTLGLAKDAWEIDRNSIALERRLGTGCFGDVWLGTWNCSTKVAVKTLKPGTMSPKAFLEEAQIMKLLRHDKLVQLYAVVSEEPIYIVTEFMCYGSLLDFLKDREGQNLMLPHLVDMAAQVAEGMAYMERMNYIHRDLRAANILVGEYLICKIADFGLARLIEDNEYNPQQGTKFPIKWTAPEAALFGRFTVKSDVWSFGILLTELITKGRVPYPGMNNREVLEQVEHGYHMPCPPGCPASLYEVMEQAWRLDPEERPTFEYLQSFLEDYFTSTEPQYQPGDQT
Procedure: FIG. 7A-FIG. 7B show shRNA knockdown of Fgr in vitro and inhibition of activation of Fgr by TL02-59. FIG. 7A) The tdTOMp16+ cell line was transfected with three individual Fgr shRNAs. […] (Phospho-FGR (Tyr412) Rabbit Polyclonal Antibody. Company: Thermo Fisher Scientific, Catalogue #PA5-64583).
FIG. 23A-FIG. 23C. […] FIG. 23A—Irradiated tdTOMp16+ non-senescent (tdTOM−) and senescent (tdTOM+) cells were cultured on the top well of the transwell, and the target C57BL/6 stromal cells were cultured on the bottom well. Cells were treated with either vehicle or 10 nM Fgr inhibitor TL02-59 and after 10 days, target cells were harvested for RNA, and RT-qPCR was performed for TGF-β and Collagen 3 genes. FIG. 23B—Inhibition of Fgr phosphorylation by TL02-59 was confirmed by western blot from the vehicle and TL02-59-treated cell lysates of irradiated senescent (tdTOM+) cells (n=3, *P=<0.05; **P=0.01). […] NS nonsignificant), P values were calculated by t test.
The role of Fgr in fibrosis induction was next investigated by two methods of inhibition: first, pharmacologic inhibition of Fgr was applied by adding the Fgr-specific small-molecule inhibitor TL02-59 (FIG. 23A, FIG. 23B). […] Using the transwell non-contact coculture system, the effect of a specific inhibitor of Fgr TL02-59 (10 nM) on the induction of biomarkers of fibrosis in target cells by tdTOM+ senescent cells was measured for 10 days. […]

Src-family kinase Fgr, sequence (P09769 whole entry): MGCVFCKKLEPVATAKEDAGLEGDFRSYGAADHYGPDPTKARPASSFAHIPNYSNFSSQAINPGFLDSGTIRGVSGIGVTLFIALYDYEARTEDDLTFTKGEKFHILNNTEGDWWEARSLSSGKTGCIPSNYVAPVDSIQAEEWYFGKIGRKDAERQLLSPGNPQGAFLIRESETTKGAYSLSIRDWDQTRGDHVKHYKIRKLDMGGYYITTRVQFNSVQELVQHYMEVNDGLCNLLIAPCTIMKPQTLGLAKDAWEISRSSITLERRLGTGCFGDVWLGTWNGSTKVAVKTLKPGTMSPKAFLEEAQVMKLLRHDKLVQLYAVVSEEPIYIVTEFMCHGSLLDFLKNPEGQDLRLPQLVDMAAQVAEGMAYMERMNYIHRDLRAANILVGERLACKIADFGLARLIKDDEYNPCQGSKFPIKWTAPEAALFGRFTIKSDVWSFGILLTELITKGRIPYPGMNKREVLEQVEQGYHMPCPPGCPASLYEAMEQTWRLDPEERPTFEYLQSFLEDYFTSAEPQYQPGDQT

phosphorylation of Fgr (Tyr412) (Fgr; 0.1 μM TL02-59, tdTOMp16+ cell line, FIG. 7B): Inhibition of phosphorylation of Fgr
Compound: CCN1CCN(Cc2ccc(NC(=O)c3ccc(C)c(Oc4ncnc5cc(OC)c(OC)cc45)c3)cc2C(F)(F)F)CC1 [TL02-59]
primary target kinase (Src-family kinase Fgr): primary target
induction of Tgf-β, Collagen 1a1 and collagen 3 in target cells by irradiated mouse lung senescent cells ([1]; TL02-59 10 nM): can block senescent cell induction of these genes
induction of collagen 3 by RIS red lung cells ([1]; cells from 20 Gy irradiated tdTOMp16 mouse lungs): reduced the induction of collagen 3
Fgr phosphorylation in irradiated senescent (tdTOM+) cells, western blot (Fgr; vehicle vs TL02-59 treated cell lysates, FIG. 23): inactivated Fgr; also recorded: inhibited
